Source: ChEMBL document CHEMBL5505981, “Design, synthesis and biological evaluation of novel 1,2,4a,5-tetrahydro-4H-benzo[b][1,4]oxazino[4,3-d][1,4]oxazine-based AAK1 inhibitors with anti-viral property against SARS-CoV-2” (Eur J Med Chem, 2024)
The source made the active and inactive calls. No cut-off for these calls is given here.

Legend:
[1] = tested on: SARS-CoV-2; test: microbe, parasite or virus in culture; settings: Severe acute respiratory syndrome coronavirus 2, HEK293
[2] = tested on: SARS-CoV-2; format: functional, organism-based; settings: Severe acute respiratory syndrome coronavirus 2; HEK293; dose 3.0 µM, time 25.0 hrs
[3] = tested on: SARS-CoV-2; format: functional, organism-based; settings: Severe acute respiratory syndrome coronavirus 2; HEK293; dose 3.0 µM, time 4.0 hrs
[4] = tested on: HEK293; format: cell-based; settings: Homo sapiens, dose 1-3 µM, time 4.0 hrs
[5] = tested on: SARS-CoV-2; format: functional, organism-based; settings: Severe acute respiratory syndrome coronavirus 2; HEK293; dose 10.0 µM, time 6.0 hrs
[6] = tested on: SARS-CoV-2; format: functional, organism-based; settings: Severe acute respiratory syndrome coronavirus 2; HEK293; dose 10.0 µM, time 6.0 hrs; remark: listed apart in the source
[7] = tested on: HEK293; format: cell-based; settings: Homo sapiens, dose 5-10 µM, time 4.0 hrs
[8] = tested on: SARS-CoV-2; format: functional, organism-based; settings: Severe acute respiratory syndrome coronavirus 2; HEK293; dose 5.0 µM, time 6.0 hrs
[9] = tested on: SARS-CoV-2; format: functional, organism-based; settings: Severe acute respiratory syndrome coronavirus 2; HEK293; dose 5.0 µM, time 6.0 hrs; remark: listed apart in the source

**Q.** `CCN(CC)CCNC(=O)c1c(C)[nH]c(/C=C2\C(=O)Nc3ccc(F)cc32)c1C` [SUNITINIB] was tested. Which IC50 [1] did it give?
**A.** ~1.96 µM

**Q.** What does the source list for `C(#Cc1c[nH]c2ncc(-c3ccc4c(c3)OCC3COCCN43)cc12)c1cccnc1` (configuration not stated)?
**A.** inhibition [2]: Active; Activity [3]: Active; inhibition [4]: Active; IC50 [1]: ~2.9 µM

**Q.** Which results are given for `CCN(CC)S(=O)(=O)Nc1cccc(-c2ccc3c(NC(=O)C4CC4)n[nH]c3c2)c1`?
**A.** Activity [5]: Active; Activity [6]: Active; Activity [3]: Active; inhibition [7]: Active

**Q.** Which results are given for `COc1ccc(-c2cnc3[nH]cc(C#Cc4cccnc4)c3c2)cc1OC`?
**A.** inhibition [2]: Active; Activity [3]: Active; inhibition [4]: Active; IC50 [1]: ~3.11 µM

**Q.** Which Activity [8] does the source give for `CC(C)C[C@](C)(N)COc1ccc(-c2ccnc(C(F)F)c2)nc1C(F)F` [PILAVAPADIN] here?
**A.** Active

**Q.** What about the Activity [9] of the same compound?
**A.** Active

**Q.** What about the Activity [3] of the same compound?
**A.** Active

**Q.** And the IC50 [1]?
**A.** ~4.18 µM
